Experimental findings from PubChem BioAssay (NCI) are described below.

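1) Cells in 96-well plates. 2) Compound, 48 h, 5 concentrations. 3) Linear interpolation between surrounding doses. 4) Unreached endpoint = highest concentration. GI50 marks 50% less growth. TGI: concentration producing complete growth inhibition.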

Some test systems named below: NCI-H226 lung; HL-60(TB) leukemia; SK-MEL-28 melanoma; EKVX NSCLC; UACC-62 melanoma; COLO 205 colon; CAKI-1 renal; SN12C renal; HS 578T breast; RPMI-8226 leukemia.
Holding throughout (assay): NCI anticancer screen, dose series, 48 h

For the compound `CC(=O)Nc1cc2c3c(cccc3c1)-c1ccccc1-2`, the GI50 is 37.8 µM in the experiment on NCI-H226 lung; 0.25 µM with HL-60(TB) leukemia; greater than 100 µM with SK-MEL-28 melanoma; 7.94 µM in the experiment with EKVX NSCLC; 40 µM in the experiment with UACC-62 melanoma; greater than 100 µM in the experiment with COLO 205 colon. Moreover, the values for the GI50 in the experiment on CAKI-1 renal, in the experiment with SN12C renal and in the experiment on HS 578T breast were 4 µM, 0.72 µM and 29.3 µM, respectively. Besides, the TGI in the experiment on NCI-H226 lung was greater than 100 µM; in the experiment on HL-60(TB) leukemia, greater than 100 µM; in the experiment with SK-MEL-28 melanoma, greater than 100 µM; in the experiment with EKVX NSCLC it was 38.9 µM; in the experiment on UACC-62 melanoma, greater than 100 µM; in the experiment on COLO 205 colon it was greater than 100 µM. In addition, the TGI in the experiment on CAKI-1 renal was 23.8 µM; in the experiment with SN12C renal it was greater than 100 µM; in the experiment with HS 578T breast it was 94.6 µM.

Consider `O=C1c2ccc3c4c(ccc(c24)C(=O)N1CCNCc1ccccc1)C(=O)N(CCNCc1ccccc1)C3=O`, for which the GI50 in the experiment with HL-60(TB) leukemia is 2.09 µM; in the experiment on SK-MEL-28 melanoma, 2.59 µM; in the experiment on EKVX NSCLC it was 2.03 µM; with UACC-62 melanoma it was 1.74 µM; with COLO 205 colon, 1.65 µM; in the experiment with CAKI-1 renal, 1.88 µM. The GI50 in the experiment with SN12C renal was 1.63 µM; in the experiment on RPMI-8226 leukemia, 2 µM; with HS 578T breast it was 1.83 µM. The TGI worked out at 4.91 µM in the experiment on HL-60(TB) leukemia; 7.13 µM with SK-MEL-28 melanoma; 6.02 µM in the experiment on EKVX NSCLC; 3.35 µM in the experiment on UACC-62 melanoma; 3.01 µM in the experiment on COLO 205 colon; 4.91 µM with CAKI-1 renal. The figures for the TGI in the experiment on SN12C renal, in the experiment with RPMI-8226 leukemia and in the experiment on HS 578T breast were 3.05 µM, 5.12 µM and 5.27 µM, respectively.

As to `O=C(/C=C/C=C/c1ccc2c(c1)OCO2)N/N=C\c1ccc(O)cc1O`, the GI50 was 2.78 µM in the experiment with NCI-H226 lung; 3.58 µM in the experiment on HL-60(TB) leukemia; 2.97 µM with SK-MEL-28 melanoma; 2.05 µM with EKVX NSCLC; 1.63 µM with UACC-62 melanoma; 2.31 µM in the experiment with COLO 205 colon. For the same compound, the GI50 with CAKI-1 renal is 2.24 µM; in the experiment on SN12C renal, 2.98 µM; in the experiment with HS 578T breast, 2.29 µM. Also, the TGI in the experiment on NCI-H226 lung came out at 11.3 µM; in the experiment on HL-60(TB) leukemia, 24.1 µM; in the experiment on SK-MEL-28 melanoma, 19.6 µM; with EKVX NSCLC, 15.1 µM; with UACC-62 melanoma, 7.08 µM; in the experiment on COLO 205 colon, 13.8 µM. Also, the TGI is 15.2 µM with CAKI-1 renal, 16.2 µM in the experiment with SN12C renal and 8.15 µM in the experiment on HS 578T breast.

On to `O=C(Nc1cccc(-n2cc(-c3ccncc3)c(-c3ccc(Cl)c(O)c3)n2)c1)Nc1ccc(Cl)c(Cl)c1`, for which the GI50 with NCI-H226 lung was 1.51 µM; in the experiment with HL-60(TB) leukemia, 0.515 µM; with SK-MEL-28 melanoma, 1.46 µM; with UACC-62 melanoma, 1.11 µM; in the experiment with COLO 205 colon it was 3.96 µM; with CAKI-1 renal it was 1.11 µM. The GI50 in the experiment on SN12C renal was 1.31 µM; with RPMI-8226 leukemia it was 1.03 µM; in the experiment on HS 578T breast it was 0.785 µM. Moreover, the TGI in the experiment with NCI-H226 lung is greater than 32.5 µM; with HL-60(TB) leukemia, greater than 32.5 µM; in the experiment with SK-MEL-28 melanoma, 9.85 µM; in the experiment on UACC-62 melanoma, 5.21 µM; in the experiment with COLO 205 colon it was 9.49 µM; in the experiment on CAKI-1 renal, 14.3 µM. The TGI is greater than 32.5 µM in the experiment on SN12C renal, greater than 32.5 µM in the experiment on RPMI-8226 leukemia and 3.15 µM with HS 578T breast.

Turning to `CC(=O)N[C@@H](Cc1ccc(OP(=O)(O)O)cc1)C(=O)N[C@H]1CCC(=O)N2CCC[C@@H](C(=O)NC3CCc4ccccc43)N2C1=O` (stereo partly drawn), the GI50 in the experiment on NCI-H226 lung, in the experiment with HL-60(TB) leukemia, in the experiment on SK-MEL-28 melanoma, with UACC-62 melanoma, in the experiment on COLO 205 colon and in the experiment with CAKI-1 renal was greater than 25 µM each time. The GI50 in the experiment with SN12C renal, with RPMI-8226 leukemia and in the experiment with HS 578T breast was greater than 25 µM throughout. The TGI in the experiment with NCI-H226 lung, in the experiment with HL-60(TB) leukemia, in the experiment with SK-MEL-28 melanoma, in the experiment with UACC-62 melanoma, with COLO 205 colon and in the experiment with CAKI-1 renal was greater than 25 µM in each case. In addition, the TGI with SN12C renal, in the experiment with RPMI-8226 leukemia and in the experiment with HS 578T breast was greater than 25 µM each time.

As to `Cc1cc(-c2cc(OC(=O)c3ccccc3)ccc2Cl)cc2nnc(Nc3ccc(OCCN4CCCC4)cc3)nc12`, the GI50 in the experiment with HL-60(TB) leukemia is 2.47 µM; with SK-MEL-28 melanoma it was 1.5 µM; in the experiment with EKVX NSCLC, 1.61 µM; in the experiment with UACC-62 melanoma, 1.71 µM; in the experiment on COLO 205 colon, 1.68 µM; with CAKI-1 renal, 1.36 µM. The figures for the GI50 in the experiment on SN12C renal, with RPMI-8226 leukemia and in the experiment on HS 578T breast were 1.49 µM, 1.6 µM and 1.58 µM, respectively. Besides, the TGI in the experiment with HL-60(TB) leukemia turned out to be 4.69 µM; in the experiment on SK-MEL-28 melanoma, 2.93 µM; in the experiment with EKVX NSCLC it was 3.09 µM; in the experiment with UACC-62 melanoma it was 3.36 µM; with COLO 205 colon, 3.6 µM; in the experiment with CAKI-1 renal it was 2.69 µM. The values for the TGI with SN12C renal, in the experiment with RPMI-8226 leukemia and in the experiment with HS 578T breast were 3.1 µM, 3.63 µM and 3.94 µM, respectively.
